Reference: patent publication US11608319B2, “Beta-amino acid derivative, kinase inhibitor and pharmaceutical composition containing the same, and method for performing an in vivo related application that benefits from the inhibition of a kinase” (Industrial Technology Research Institute, priority 2019, dated 2023)
“And” between values parts separate entries of the source, which are not always exact repeats. Equal values may be shown once. Where a name gives a salt, the structure may show the parent alone. Read-outs that look alike come from different tables or passages of the source.

How the values were obtained:
[1] = tested on: Human Trabecular Meshwork (HTM) cells; assay: Expression of MYLK-4 in HTM cells by Western blotting; format: cell-based; settings: HTM cells treated overnight with 50 μg/mL dexamethasone
Protocol: Expression of MYLK-4 in Cells
Human Trabecular Meshwork (HTM) cells (Cat. NO. 6590) were obtained from ScienCell Research Laboratories. HTM cells were maintained in Trabecular Meshwork Cell Medium (TMCM) (Cat. NO. 6591). TMCM formulated from 500 mL basal medium, 10 mL FBS (Cat. NO. 0010), 5 mL trabecular meshwork cell growth supplement (TMCGS, Cat. NO. 6592) and 5 mL penicillin/streptomycin solution (P/S, Cat. NO. 503). When the cell growth reached 70-80% saturation, the HTM cells were treated overnight with 50 μg/mL dexamethasone (Cat. NO. 4902, Sigma).
The expression of MYLK4 and GAPDH in cell lysates was analyzed by Western blotting method. First, the cells were collected and washed with 1×RIPA (50 mM Tris-HCl, pH 7.4, 150 mM NaCl, 0.25% deoxycholic acid, 0.1% NP-40, 1 mM EDTA, phosphatase inhibitor and protease inhibitor mixture). Next, the cell lysates were separated by SDS-PAGE (sodium dodecyl sulfate polyacrylamide gel electrophoresis) and transferred to PVDF membrane (iBlot™ 2 Transfer Stacks, polyvinylidene fluoride membrane, Invitrogen). Immunoblotting was performed on the membrane with primary antibodies (mouse anti-MYLK4 antibody (1:1,000, Cat. NO. SAB1412951) and mouse anti-GAPDH antibody (1:1,000, Cat. NO. G8795)), wherein GAPDH was used as a loading control. […]

humans = settings: phase III clinical trial; cited from earlier work
MYLK4 = MYLK4 (Homo sapiens (Human), UniProt Q86YV6); assay: Assay for inhibitory effect on MYLK-4, LanthaScreen Eu Kinase Binding Assay
[2] = tested on: rabbit eyes with normal intraocular pressure; assay: Evaluation of the effect of decreasing intraocular pressure in a model of rabbit with normal intraocular pressure; format: in vivo, New Zealand white rabbit; settings: for Intraocular pressure difference (mmHg): at time point of maximum effect
Protocol: Evaluation of the Effect of Decreasing Intraocular Pressure in a Model of Rabbit with Normal Intraocular Pressure
Experimental animal: New Zealand white rabbit, male, weighing more than 2 kg. New Zealand white rabbits were purchased from Huijun Farm (Changhua, Taiwan). After a one-week quarantine period, they were raised in MASTER LABORATORY Co., Ltd under the environmental conditions of 16-22° C., 30-70% relative humidity (RH), 8 hours day/16 hours night.
(1) Evaluation of the Effect of Reducing Intraocular Pressure
After weighing 12 New Zealand white rabbits (2.0-4.0 kg) and grouping them (n=3-6 in each group), the white rabbits were fixed with a wrap.

[3] = tested on: rabbit eyes with high intraocular pressure induced by hypertonic saline; assay: Model of hypertonic saline induced high intraocular pressure rabbit (acute high intraocular pressure model); format: in vivo, New Zealand white rabbit; set-up: AUC: unit not given beside the values; settings: for AUC: intraocular pressure over 0-5 hours; for Maximum intraocular pressure difference (%) / Maximum intraocular pressure difference (mm Hg): versus physiological saline group
Description: Evaluation of the effect of reducing intraocular pressure in model of hypertonic saline induced high intraocular pressure rabbit (acute high intraocular pressure model)
Experimental animal: New Zealand white rabbit, male, weighing 2.0-3.0 kg. New Zealand white rabbits were purchased from a qualified laboratory animal rabbit farm in Taiwan before the experiment and were raised in the Animal Center of National Chiao Tung University.
Negative control 1: Physiological saline
Negative control 2: Vehicle without test substance (containing 5% mannitol, 20 mM boric acid and 0.125% nonoxynol-9)
Experimental method: male New Zealand white rabbits were weighed and grouped and then anesthetized. 160 μL of hypertonic saline (5% NaCl) was injected into the vitreous bodies of the left and right eyes of the rabbit under anesthesia, so that the rabbit eyes became a state of high intraocular pressure. […] The intraocular pressure (TOP) detection time points were before anesthesia (0 hours) and 0.5, 1, 1.5, 3, and 5 hours after administration.
Maximum intraocular pressure difference: The difference between an individual's TOP readings and the average TOP readings of the negative control group 1 (physiological saline) at the time point at which the maximum response is recorded (J Ocul Pharmacol Ther. 2010 April; 26(2): 125-132)

[4] = tested on: rabbit eyes with high intraocular pressure induced by magnetic beads; assay: Model of magnetic bead induced high intraocular pressure rabbit (intraocular pressure >30 mmHg); format: in vivo, New Zealand white rabbit
Description: Evaluation of the effect of reducing intraocular pressure in model of magnetic bead induced high intraocular pressure rabbit (high intraocular pressure model with intraocular pressure >30 mmHg)
Experimental animal: New Zealand white rabbit, male, body weight 2.0-3.0 kg. New Zealand white rabbits were purchased from Huijun Farm (Changhua, Taiwan) before the experiment and were raised in the Animal Center of National Chiao Tung University.
Experimental method: After weighing and grouping male New Zealand white rabbits, the New Zealand white rabbits were anesthetized with Zoletil 50 0.2 mL/kg. 50 μL of magnetic bead solution (50 mg/mL, magnetic bead size of 10 μm) was injected into the left and right anterior eye chambers of the rabbit under anesthesia to make rabbit eyes become a state of high intraocular pressure. After the injection to the anterior chamber of the eye, a strong […] iron magnet ring was immediately put around the eye for 10-20 minutes to make the magnetic beads completely block the drainage tissue of the aqueous humor. After disinfecting the eyeball with antibiotics, moisturizing eye ointment was provided to restore the eyeball, and the intraocular pressure rising was waited. […] The experiment was conducted for 2 consecutive days.

patients = settings: cited from earlier work
rabbit eyes [5] = assay: Safety margin assay (eye irritation, OECD/OCDE 405); settings: Therapeutic index: 2
ROCK1 = ROCK1 (Homo sapiens (Human), UniProt Q13464); assay: biochemical
YSK4 = YSK4 (Homo sapiens (Human), UniProt Q56UN5); assay: Assay for inhibitory effect on YSK-4, Z'-LYTE kinase assay; format: biochemical
Protocol: C. Assay for Inhibitory Effect on YSK-4
The experimental procedure referred to the Z′-LYTE Screening Protocol and Assay Conditions provided by ThermoFisher Scientific.
C-1. Material Preparation
Peptide/Kinase Mixture was pre-diluted with Kinase Buffer to 2× working concentration.
ATP solution was pre-diluted with Kinase Buffer (50 mM HEPES pH 7.5, 0.01% BRIJ-35, 10 mM MgCl2, 1 mM EGTA) to 4× working concentration.
The development reagent solution is Novel PKC Lipid Mix, which contains 2 mg/mL Phosphatidyl Serine, 0.2 mg/mL DAG in 20 mM HEPES, pH 7.4 and 0.3% CHAPS, and was pre-diluted 10 fold with development buffer.
1. 100 nL of the above diluted test compound and 2.4 μL of kinase buffer were added to a black 384-well plate (Corning, Cat. NO. 4514), then add 5 μL of the peptide/kinase mixture mentioned above was added thereto, and after that 2.5 μL of ATP solution was added thereto, and the culture plate was shaken for 30 seconds.
2. Next, the culture plate was placed at room temperature and incubated for 60 minutes.
3. After that 5 μL of the development reagent solution was added and the culture plate was shaken for 30 seconds in the dark, and then the data was read and analyzed with a fluorescence plate reader.
In addition, for the kinase, the following control group was prepared and placed on the same culture plate as the kinase:
(1) 0% Phosphorylation Control (100% Inhibition Control)
This control yields 100% cleaved peptide in the Development Reaction.
(2) 100% Phosphorylation Control
A synthetically phosphorylated peptide of the same sequence as the peptide substrate is used as the 100% Phosphorylation Control.
The Phosphorylation percent achieved in a specific reaction well (Experimental group) was calculated based on the 0% Phosphorylation Control and 100% Phosphorylation Control.

rabbit eyes [6] = assay: Eye irritation evaluation (OECD/OCDE 405); format: in vivo, New Zealand white rabbit
Description: (2) Irritation Evaluation

cornea of rabbit eyes = assay: Observation of cornea with a slit lamp after 7 days of administration; format: in vivo, New Zealand white rabbit; settings: 0.1% eye drops, continuous administration for 7 days, once a day
[7] = Content analysis for candidate drug in aqueous humor, iris and ciliary body after administration
Description: (4) Content Analysis for Candidate Drug in Aqueous Humor (AH) after Administration

normal macaques = assay: Intraocular pressure in animal model of macaque with normal intraocular pressure; format: in vivo; settings: eye drop 0.1% or 0.03%
Protocol: The intraocular pressure of animals was measured by a pneumatic tonometer (Model 30™ Pneumatonometer). Animal anesthesia was required before intraocular pressure measurement. After topical administration (once a day), the intraocular pressure of the animals was measured at the set time points.

[8] = tested on: rabbit eyes with normal intraocular pressure
Protocol: The maximal effect (Emax) dose evaluation of the intraocular pressure reduction model in normal rabbit
Animals: Male New Zealand white rabbits (n=7/each group);
Administration: 50 μL of the test compound was instilled in the right eye (dosed eye) and 50 μL of the vehicle (without the test compound) in the left eye (control eye) of each experimental animal. The 3 formulation mentioned above were administered once a day for 3 consecutive days.
The intraocular pressure of each animal was measured by Tono-Vet (iCare) before administration (0 hours) and 2, 4, 6 and 8 hours after administration on Day 1 and Day 3.
The maximum magnitude of the reduction in intraocular pressure %=(Intraocular pressure of the control eye−Intraocular pressure of the dosed eye)/Intraocular pressure of the control eye*100
The data presented in this experiment is the data that has removed the unqualified data (white rabbits with an intraocular pressure difference ≥2 mmHg (n=1) in the two eyes on Day 1 and >5 mmHg in the two eyes before the administration on the Day 3 (n=1) have been removed) and removed the rebound high intraocular pressure (n=3).

[9] = eye drops containing 0.1% and 0.03% Compound 20

MYLK4, sequence (Q86YV6 whole entry): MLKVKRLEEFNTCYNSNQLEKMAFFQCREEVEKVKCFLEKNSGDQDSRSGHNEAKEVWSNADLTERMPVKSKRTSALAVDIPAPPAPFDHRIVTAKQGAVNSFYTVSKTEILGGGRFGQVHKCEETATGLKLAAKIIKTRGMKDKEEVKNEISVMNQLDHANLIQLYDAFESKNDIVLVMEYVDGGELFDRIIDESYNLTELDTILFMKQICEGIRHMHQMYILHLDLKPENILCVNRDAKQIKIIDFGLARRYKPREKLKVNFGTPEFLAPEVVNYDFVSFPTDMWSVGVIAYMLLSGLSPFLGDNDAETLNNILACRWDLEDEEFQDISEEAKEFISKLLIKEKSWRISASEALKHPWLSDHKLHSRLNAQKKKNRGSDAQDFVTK
ROCK1, sequence (Q13464 whole entry, species assumed): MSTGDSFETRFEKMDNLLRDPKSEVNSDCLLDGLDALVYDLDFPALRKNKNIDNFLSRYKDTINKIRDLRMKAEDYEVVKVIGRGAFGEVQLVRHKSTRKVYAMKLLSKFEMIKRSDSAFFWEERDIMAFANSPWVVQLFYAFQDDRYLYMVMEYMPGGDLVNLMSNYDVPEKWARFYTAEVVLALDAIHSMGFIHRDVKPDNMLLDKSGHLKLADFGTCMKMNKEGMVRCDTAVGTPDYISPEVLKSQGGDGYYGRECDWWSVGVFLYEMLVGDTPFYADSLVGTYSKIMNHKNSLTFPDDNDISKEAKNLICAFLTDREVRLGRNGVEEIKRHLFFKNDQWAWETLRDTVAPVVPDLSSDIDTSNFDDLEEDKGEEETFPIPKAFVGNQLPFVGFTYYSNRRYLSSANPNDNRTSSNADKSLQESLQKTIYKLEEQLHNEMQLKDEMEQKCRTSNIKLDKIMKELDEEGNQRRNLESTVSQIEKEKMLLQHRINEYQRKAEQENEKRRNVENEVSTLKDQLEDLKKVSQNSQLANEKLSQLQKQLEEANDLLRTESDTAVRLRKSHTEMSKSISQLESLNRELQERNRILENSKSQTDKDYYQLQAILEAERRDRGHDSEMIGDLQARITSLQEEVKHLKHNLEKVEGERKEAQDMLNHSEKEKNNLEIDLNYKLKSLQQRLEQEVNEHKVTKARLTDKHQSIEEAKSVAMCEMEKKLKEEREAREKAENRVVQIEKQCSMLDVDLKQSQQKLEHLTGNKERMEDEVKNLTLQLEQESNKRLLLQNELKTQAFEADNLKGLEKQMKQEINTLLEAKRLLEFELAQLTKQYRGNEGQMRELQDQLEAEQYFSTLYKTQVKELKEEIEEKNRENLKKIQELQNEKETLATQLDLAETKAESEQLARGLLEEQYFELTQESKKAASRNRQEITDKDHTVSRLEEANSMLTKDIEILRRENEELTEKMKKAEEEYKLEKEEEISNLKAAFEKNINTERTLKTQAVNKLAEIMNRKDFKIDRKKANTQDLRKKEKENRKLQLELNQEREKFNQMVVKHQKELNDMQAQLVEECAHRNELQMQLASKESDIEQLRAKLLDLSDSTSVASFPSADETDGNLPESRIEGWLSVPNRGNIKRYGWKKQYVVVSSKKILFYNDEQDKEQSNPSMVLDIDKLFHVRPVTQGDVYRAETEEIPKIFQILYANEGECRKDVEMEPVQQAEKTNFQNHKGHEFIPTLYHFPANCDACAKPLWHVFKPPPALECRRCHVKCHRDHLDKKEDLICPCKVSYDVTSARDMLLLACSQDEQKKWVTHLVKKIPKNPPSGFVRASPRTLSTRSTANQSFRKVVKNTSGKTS
YSK4, sequence (Q56UN5 whole entry): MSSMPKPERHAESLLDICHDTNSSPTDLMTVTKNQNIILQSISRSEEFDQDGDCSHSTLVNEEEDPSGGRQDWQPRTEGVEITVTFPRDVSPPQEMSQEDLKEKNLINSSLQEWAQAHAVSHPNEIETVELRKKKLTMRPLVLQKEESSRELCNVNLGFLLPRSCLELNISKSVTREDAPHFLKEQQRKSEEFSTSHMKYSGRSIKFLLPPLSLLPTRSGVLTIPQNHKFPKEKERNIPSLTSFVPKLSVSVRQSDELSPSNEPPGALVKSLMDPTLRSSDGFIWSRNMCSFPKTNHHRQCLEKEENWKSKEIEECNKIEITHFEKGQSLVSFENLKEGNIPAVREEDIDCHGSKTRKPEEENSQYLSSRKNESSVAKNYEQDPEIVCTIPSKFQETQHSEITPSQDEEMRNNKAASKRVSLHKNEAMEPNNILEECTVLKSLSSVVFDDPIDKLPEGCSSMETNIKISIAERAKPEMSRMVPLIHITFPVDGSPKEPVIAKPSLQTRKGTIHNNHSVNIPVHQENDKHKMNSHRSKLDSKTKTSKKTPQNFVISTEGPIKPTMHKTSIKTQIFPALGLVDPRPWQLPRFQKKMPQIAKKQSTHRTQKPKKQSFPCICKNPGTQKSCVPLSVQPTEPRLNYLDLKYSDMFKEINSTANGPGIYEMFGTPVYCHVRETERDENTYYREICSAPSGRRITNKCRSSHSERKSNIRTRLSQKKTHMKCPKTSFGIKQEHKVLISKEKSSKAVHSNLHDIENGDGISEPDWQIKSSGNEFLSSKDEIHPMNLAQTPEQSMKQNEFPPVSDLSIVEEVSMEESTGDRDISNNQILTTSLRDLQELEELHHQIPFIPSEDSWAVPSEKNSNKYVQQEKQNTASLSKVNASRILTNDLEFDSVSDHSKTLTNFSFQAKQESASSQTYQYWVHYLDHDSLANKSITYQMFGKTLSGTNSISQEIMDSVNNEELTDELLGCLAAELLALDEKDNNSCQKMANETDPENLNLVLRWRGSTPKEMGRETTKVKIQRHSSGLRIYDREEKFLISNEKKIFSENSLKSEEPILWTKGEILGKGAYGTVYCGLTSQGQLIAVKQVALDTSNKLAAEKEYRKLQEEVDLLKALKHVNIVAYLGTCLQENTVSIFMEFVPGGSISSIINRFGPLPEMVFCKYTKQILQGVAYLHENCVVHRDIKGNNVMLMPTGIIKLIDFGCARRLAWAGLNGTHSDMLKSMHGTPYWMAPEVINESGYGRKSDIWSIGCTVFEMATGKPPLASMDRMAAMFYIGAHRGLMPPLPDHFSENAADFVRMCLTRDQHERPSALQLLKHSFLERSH

In the case of `C[C@@H]1C[C@H]2[C@@H]3CCC4=CC(=O)C=C[C@]4(C)[C@@]3(F)[C@@H](O)C[C@]2(C)[C@@]1(O)C(=O)CO` [dexamethasone], the “expression level of MYLK-4” value [1] is reported as “higher than that of normal HTM cells”.
For `C[C@H]1CNCCCN1S(=O)(=O)c1cccc2cncc(F)c12` [Ripasudil], the “incidence of mild conjunctival hyperemia” value (humans) is listed as “up to 75%”.
With `Cc1ccc(C(=O)OCc2ccc([C@@H](CN)C(=O)Nc3ccc4cnccc4c3)cc2)c(C)c1` [AR-13324, Netarsudil, reference compound] the IC50 (MYLK4) was greater than 1000 nM, the “time point at which maximum effect is achieved” value ([2]; dose 1%) was 6 h and the “Intraocular pressure difference (mmHg)” value ([2]; dose 1%) was 4.5 mmHg. The AUC ([3]; dose 0.02%) was 132.9, the “Maximum intraocular pressure difference (%)” value ([3]; dose 0.02%) was −20.8% and the “Maximum intraocular pressure difference (mm Hg)” value ([3]; dose 0.02%) was −7.7 ± 4.2 mm Hg. For the same compound, the “difference compared with the physiological saline or the vehicle (t-test)” value ([3]; eye drop containing 0.02%) was “no statistically significant difference”, the “reduction of the intraocular pressure” value ([3]; eye drop containing 0.02%) was “about 7.7±4.2 mmHg” and the “Maximum intraocular pressure difference (mmHg)” value ([4]; dose 0.02%, experiment of Table 13) was 3.6 ± 2.1 mmHg. The “reduction of intraocular pressure in percent” value (from here on “reduction … in percent”) ([4]; eye drop containing 0.02%) was “about 11.0%”, the “efficacy compared with Timolol” value (patients; patients <25 mmHg) was “comparable to Timolol” and the “efficacy compared with Timolol” value (patients; patients with intraocular pressure >25 mmHg) was “not as effective as the conventional glaucoma treatment drug Timolol”. The “OECD Score: Chemosis” value (rabbit eyes [5]) was 1, the “OECD Score: Discharge” value (rabbit eyes [5]) was 2 and the “OECD Score: Redness” value (rabbit eyes [5]) was 1. The “OECD Score: Total” value (rabbit eyes [5]) was 4.
With `NC[C@@H](C(=O)Nc1ccc(-c2cn[nH]c2)cc1)c1ccccc1` [Compound 20, (S)—N-(4-(1H-pyrazol-4-yl)phenyl)-3-amino-2-phenylpropanamide dihydrochloride] the IC50 (ROCK1) was 1 to 10 nM, the IC50 (MYLK4) was 10 to 100 nM and the “inhibitory effect on YSK4 (in words)” value (YSK4) was “simultaneously targets ROCK, MYLK-4 and YSK-4”. The “time point at which maximum effect is achieved” value ([2]; dose 0.03%) was 8 h, the “Intraocular pressure difference (mmHg)” value ([2]; dose 0.03%) was 4.9 mmHg and the “maximum magnitude of the reduction in intraocular pressure” value [2, 9] was 4.4-4.9 mmHg. For the same compound, the “time of maximum effect (Emax) after administration” value [2, 9] was 6 to 8 h, the “eye irritation compared with AR-13324 (0.02%)” value (rabbit eyes [6]; Compound 20 at 0.1%) was “lower than AR-13324” and the eye irritation (rabbit eyes [6]; [9]) was “slight”. The “state of the cornea” value (cornea of rabbit eyes) was “free of damage and turbidity”, the “content in the aqueous humor after administration” value ([7]; normal rabbits) was “can reach the requirement of ROCK inhibition” and the “drug concentration at the target tissue (iris and ciliary body, aqueous humor)” value ([7]; rabbit eyes with normal intraocular pressure) was “reaches the target effect IC90 or more within 8 hours”. For the same compound, the “side effects, such as pink eye” value (normal macaques) was “without obvious side effects”, the “effect of reducing intraocular pressure compared with 0.02% AR-13324” value (normal macaques; once a day) was “equivalent to or better than that of AR-13324” and the “effect in reducing intraocular pressure compared with AR-13324 (t-test)” value ([3]; 0.1% Compound 20 versus 0.02% AR-13324, p<0.05) was “significantly better than that of AR-13324”. The AUC ([3]; dose 0.1%) was 99.1, the “Maximum intraocular pressure difference (%)” value ([3]; dose 0.1%) was −40.4% and the “Maximum intraocular pressure difference (mm Hg)” value ([3]; dose 0.1%) was −18.0 ± 6.8 mm Hg. For the same compound, the “reduction of the intraocular pressure” value ([3]; eye drop containing 0.1%) was “about 18.0±6.8 mmHg”, the “reduction … in percent” value ([4]; eye drop containing 0.03%) was “about 15.3%” and the “reduction … in percent” value ([4]; eye drop containing 0.1%) was “about 28.8%”. The “dose dependence of the reduction of intraocular pressure” value ([8]; 0.01%, 0.03%, 0.1%) was “exhibits a dose dependent effect”, the “increase of the reduction in intraocular pressure on Day 3 compared to Day 1” value ([8]; 0.03% Compound 20, on average) was roughly 1 mmHg and the “The magnitude of intraocular pressure reduction (ΔIOP) (mmHg)” value ([8]; Day 1, 0.01% Compound 20, 50 μL eye drop) was −2.9 ± 1.1 mmHg. For the same compound, the “The maximum magnitude of the reduction in intraocular pressure” value (shortened to “The maximum magnitude of the reduction”) ([8]; Day 1, 0.01% Compound 20, versus control eye) was 18.7%, the “The magnitude of intraocular pressure reduction (ΔIOP) (mmHg)” value ([8]; Day 1, 0.03% Compound 20, 50 μL eye drop) was −4.3 ± 1.2 mmHg and the “The maximum magnitude of the reduction” value ([8]; Day 1, 0.03% Compound 20, versus control eye) was 28.3%. For the same compound, the “The magnitude of intraocular pressure reduction (ΔIOP) (mmHg)” value ([8]; Day 1, 0.10% Compound 20, 50 μL eye drop) was −5.3 ± 0.6 mmHg, the “The maximum magnitude of the reduction” value ([8]; Day 1, 0.10% Compound 20, versus control eye) was 32.2% and the “The magnitude of intraocular pressure desc (ΔIOP) (mmHg)” value ([8]; Day 3, 0.01% Compound 20, once a day) was −2.7 ± 0.8 mmHg. For the same compound, the “The maximum magnitude of the reduction” value ([8]; Day 3, 0.01% Compound 20, versus control eye) was 15.4%, the “The magnitude of intraocular pressure desc (ΔIOP) (mmHg)” value ([8]; Day 3, 0.03% Compound 20, once a day) was −5.1 ± 1.2 mmHg and the “The maximum magnitude of the reduction” value ([8]; Day 3, 0.03% Compound 20, versus control eye) was 30.5%. For the same compound, the “The magnitude of intraocular pressure desc (ΔIOP) (mmHg)” value ([8]; Day 3, 0.10% Compound 20, once a day) was −5.2 ± 1.3 mmHg, the “The maximum magnitude of the reduction” value ([8]; Day 3, 0.10% Compound 20, versus control eye) was 32.6% and the “maximum effect (Emax) dose in the normal intraocular pressure rabbit model” value ([8]; eye drop concentration) was 0.03%. For the same compound, the “Tmax” value ([8]; rabbit, in vivo, dihydrochloride) was 6 h and 8 h.
